Source: patent US11802111B2, “Cyclobutyl amide monoacylglycerol lipase modulators” (Janssen Pharmaceutica NV, priority 2020, dated 2023)
pIC50: −log10 of the molar value.

Target: human MGL from HeLa cells (Homo sapiens (Human), UniProt Q99685)
Assay: MGL in vitro activity assay ([glycerol-1,3-3H]-oleoyl glycerol hydrolysis, activated carbon filtration)
Type: biochemical
Conditions: 300 nM [Glycerol-1,3-3H]-oleoyl glycerol, one hour
Summary of the method: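 Activity measured as tritium in the flow-through after activated carbon filtration of a 1 h reaction containing 300 nM 3H-oleoyl glycerol, compound and HeLa-derived human MGL. Compounds screened at 10 μM; IC50 series start at an empirically chosen highest concentration.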

human MGL from HeLa cells, sequence (Q99685 whole entry): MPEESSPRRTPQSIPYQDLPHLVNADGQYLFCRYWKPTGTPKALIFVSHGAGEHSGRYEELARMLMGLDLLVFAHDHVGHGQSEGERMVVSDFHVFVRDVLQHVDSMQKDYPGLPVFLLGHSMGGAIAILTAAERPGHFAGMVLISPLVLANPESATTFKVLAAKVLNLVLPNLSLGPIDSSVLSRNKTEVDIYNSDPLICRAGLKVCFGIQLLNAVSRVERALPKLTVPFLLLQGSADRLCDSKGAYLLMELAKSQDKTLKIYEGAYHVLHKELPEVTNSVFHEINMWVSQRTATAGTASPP

Row | Structure (SMILES) | pIC50
1 | Cc1cc([C@H]2CCC3(C2)CN(C(=O)[C@H]2C[C@@](C)(O)C2)C3)ccc1Cl [Example 70, ((S)-6-(4-Chloro-3-methylphenyl)-2-azaspiro[3.4]octan-2-yl)((1s,3R)-3-hydroxy-3-methylcyclobutyl)methanone] | 7.77
2 | Cn1ncc2c(C3CCC4(C3)CN(C(=O)[C@H]3C[C@@](C)(O)C3)C4)cccc21 (mixture of isomers) [Example 326, (rac)-((1s,3s)-3-Hydroxy-3-methylcyclobutyl)(6-(1-methyl-1H-indazol-4-yl)-2-azaspiro[3.4]octan-2-yl)methanone] | 6.73
3 | C[C@]1(O)C[C@@H](C(=O)N2CC3(CCC(c4ncn5ccccc45)C3)C2)C1 (mixture of isomers) [Example 329, (rac)-((1s,3s)-3-Hydroxy-3-methylcyclobutyl)(6-(imidazo[1,5-a]pyridin-1-yl)-2-azaspiro[3.4]octan-2-yl)methanone] | 6.17
4 | C[C@]1(O)C[C@@H](C(=O)N2CC3(CCC(Cc4cccc(C5CC5)c4)C3)C2)C1 (mixture of isomers) [Example 201, (rac)-(6-(3-Cyclopropylbenzyl)-2-azaspiro[3.4]octan-2-yl)((1s,3s)-3-hydroxy-3-methylcyclobutyl)methanone] | 8.00
5 | C[C@]1(O)C[C@@H](C(=O)N2CC3(CCC(c4ccc(-n5cccn5)cc4)CC3)C2)C1 [Example 346, (7-(4-(1H-Pyrazol-1-yl)phenyl)-2-azaspiro[3.5]nonan-2-yl)((1s,3s)-3-hydroxy-3-methylcyclobutyl)methanone] | 6.53
6 | C[C@]1(O)C[C@@H](C(=O)N2CC3(CC(Cc4ccc5ccnn5c4)C3)C2)C1 [Example 284, ((1s,3s)-3-Hydroxy-3-methylcyclobutyl)(6-(pyrazolo[1,5-c]pyridin-6-ylmethyl)-2-azaspiro[3.3]heptan-2-yl)methanone] | 6.91
7 | Cc1cccc(OC2CC3(C2)CN(C(=O)[C@H]2C[C@@](C)(O)C2)C3)c1C(F)(F)F [Example 250, ((1s,3s)-3-Hydroxy-3-methylcyclobutyl)(6-(3-methyl-2-(trifluoromethyl)phenoxy)-2-azaspiro[3.3]heptan-2-yl)methanone] | 7.46
8 | Cc1cc(C)cc([C@H]2CC[C@@]3(CC2)CN(C(=O)[C@H]2C[C@@](C)(O)C2)[C@H]3C)c1 (stereo in doubt) [Example 350, ((1*S,4s,7*R)-7-(3,5-Dimethylphenyl)-1-methyl-2-azaspiro[3.5]nonan-2-yl)((1s,3*R)-3-hydroxy-3-methylcyclobutyl)methanone] | 7.47
9 | CCOc1ccc(C2CCC3(CC2)CN(C(=O)[C@H]2C[C@@](C)(O)C2)C3)cc1C(F)(F)F [Example 150, (7-(4-Ethoxy-3-(trifluoromethyl)phenyl)-2-azaspiro[3.5]nonan-2-yl)((1s,3s)-3-hydroxy-3-methylcyclobutyl)methanone] | 7.77
10 | CC(C)(C)c1cccc([C@@H]2CCC3(C2)CN(C(=O)[C@H]2C[C@@](C)(O)C2)C3)c1 (stereo in doubt) [Example 44, ((*R)-6-(3-(tert-Butyl)phenyl)-2-azaspiro[3.4]octan-2-yl)((1s,3*S)-3-hydroxy-3-methylcyclobutyl)methanone] | 8.01
11 | CC(C)(C)c1cccc(C2CC3(CCN(C(=O)[C@H]4C[C@@](C)(O)C4)C3)C2)c1 (stereo partly drawn) [Example 89, (2-(3-(tert-Butyl)phenyl)-6-azaspiro[3.4]octan-6-yl)((1s,3s)-3-hydroxy-3-methylcyclobutyl)methanone] | 6.90
12 | CCc1cc(C2CCC3(CC2)CN(C(=O)[C@H]2C[C@@](C)(O)C2)C3)cc(C(F)(F)F)c1 [Example 146, (7-(3-Ethyl-5-(trifluoromethyl)phenyl)-2-azaspiro[3.5]nonan-2-yl)((1s,3s)-3-hydroxy-3-methylcyclobutyl)methanone] | 8.34
13 | C[C@]1(O)C[C@@H](C(=O)N2CC3(CCC(c4ccn5ccnc5c4)C3)C2)C1 (mixture of isomers) [Example 328, (rac)-((1s,3s)-3-Hydroxy-3-methylcyclobutyl)(6-(imidazo[1,2-a]pyridin-7-yl)-2-azaspiro[3.4]octan-2-yl)methanone] | 5.43
14 | COc1ccc(CC2CCC3(C2)CN(C(=O)[C@H]2C[C@@](C)(O)C2)C3)cc1 (mixture of isomers) [Example 205, (rac)-((1s,3s)-3-Hydroxy-3-methylcyclobutyl)(6-(4-methoxybenzyl)-2-azaspiro[3.4]octan-2-yl)methanone] | 7.12
15 | C[C@]1(O)C[C@@H](C(=O)N2CCC3(CC2)CC(Cc2ccccc2)C3)C1 [Example 172, (2-Benzyl-7-azaspiro[3.5]nonan-7-yl)((1s,3s)-3-hydroxy-3-methylcyclobutyl)methanone] | 7.13
16 | CC(C)c1cccc(C2CCC3(C2)CN(C(=O)[C@H]2C[C@](O)(C(F)F)C2)C3)c1 (mixture of isomers) [Example 319, (rac)-((1s,3s)-3-(Difluoromethyl)-3-hydroxycyclobutyl)(6-(3-isopropylphenyl)-2-azaspiro[3.4]octan-2-yl)methanone] | 7.42
17 | Cn1cc(C2CCC3(C2)CN(C(=O)[C@H]2C[C@@](C)(O)C2)C3)c(C(F)(F)F)n1 (mixture of isomers) [Example 100, (rac)-((1s,3s)-3-Hydroxy-3-methylcyclobutyl)(6-(1-methyl-3-(trifluoromethyl)-1H-pyrazol-4-yl)-2-azaspiro[3.4]octan-2-yl)methanone] | 5.05
18 | Cc1ccc(C2CCC3(C2)CN(C(=O)[C@H]2C[C@@](C)(O)C2)C3)cc1OC(F)(F)F (mixture of isomers) [Example 107, (rac)-((1s,3s)-3-Hydroxy-3-methylcyclobutyl)(6-(4-methyl-3-(trifluoromethoxy)phenyl)-2-azaspiro[3.4]octan-2-yl)methanone] | 8.13
19 | Cc1nc(OC2CC3(C2)CN(C(=O)[C@H]2C[C@@](C)(O)C2)C3)ccc1C(F)(F)F [Example 309, ((1s,3s)-3-Hydroxy-3-methylcyclobutyl)(6-((6-methyl-5-(trifluoromethyl)pyridin-2-yl)oxy)-2-azaspiro[3.3]heptan-2-yl)methanone] | 6.89
20 | CC(C)n1ncc2ccc(CC3CC4(C3)CN(C(=O)[C@H]3C[C@@](C)(O)C3)C4)cc21 [Example 306, ((1s,3s)-3-Hydroxy-3-methylcyclobutyl)(6-((1-isopropyl-1H-indazol-6-yl)methyl)-2-azaspiro[3.3]heptan-2-yl)methanone] | 7.64

Now from value to compound:

Row | pIC50 | Structure (SMILES)
21 | 8.14 | C[C@]1(O)C[C@@H](C(=O)N2CC3(CCC(Oc4ccc(C5CC5)cc4)CC3)C2)C1 [Example 261, (7-(4-Cyclopropylphenoxy)-2-azaspiro[3.5]nonan-2-yl)((1s,3s)-3-hydroxy-3-methylcyclobutyl)methanone]
22 | 7.51 | CCc1cc(OC)cc(C2CCC3(CC2)CN(C(=O)[C@H]2C[C@@](C)(O)C2)C3)c1 [Example 145, (7-(3-Ethyl-5-methoxyphenyl)-2-azaspiro[3.5]nonan-2-yl)((1s,3s)-3-hydroxy-3-methylcyclobutyl)methanone]
23 | 8.09 | CC(C)(C)c1cccc(OC2CCC3(CC2)CN(C(=O)[C@H]2C[C@@](C)(O)C2)C3)c1 [Example 257, (7-(3-(tert-Butyl)phenoxy)-2-azaspiro[3.5]nonan-2-yl)((1s,3s)-3-hydroxy-3-methylcyclobutyl)methanone]
24 | 7.38 | COc1cccc(OC2CCC3(CC2)CN(C(=O)[C@H]2C[C@@](C)(O)C2)C3)c1C [Example 409, ((1s,3s)-3-Hydroxy-3-methylcyclobutyl)(7-(3-methoxy-2-methylphenoxy)-2-azaspiro[3.5]nonan-2-yl)methanone]
25 | 7.54 | C[C@]1(O)C[C@@H](C(=O)N2CC3(CCC(Oc4ccc5c(n4)CCC5)CC3)C2)C1 [Example 468, (7-((6,7-Dihydro-5H-cyclopenta[b]pyridin-2-yl)oxy)-2-azaspiro[3.5]nonan-2-yl)((1s,3s)-3-hydroxy-3-methylcyclobutyl)methanone]
26 | 6.84 | COc1cc(C)cc(OC2CCC3(CC2)CN(C(=O)[C@H]2C[C@@](C)(O)C2)C3)c1 [Example 407, ((1s,3s)-3-Hydroxy-3-methylcyclobutyl)(7-(3-methoxy-5-methylphenoxy)-2-azaspiro[3.5]nonan-2-yl)methanone]
27 | 7.49 | C[C@]1(O)C[C@@H](C(=O)N2CC3(CCC(Oc4cccc(C5CC5)c4)CC3)C2)C1 [Example 264, (7-(3-Cyclopropylphenoxy)-2-azaspiro[3.5]nonan-2-yl)((1s,3s)-3-hydroxy-3-methylcyclobutyl)methanone]
28 | 6.54 | COc1c(C)cccc1C1CCC2(C1)CN(C(=O)[C@H]1C[C@@](C)(O)C1)C2 (mixture of isomers) [Example 95, (rac)-((1s,3s)-3-Hydroxy-3-methylcyclobutyl)(6-(2-methoxy-3-methylphenyl)-2-azaspiro[3.4]octan-2-yl)methanone]
29 | 7.44 | CCOc1cc(C2CCC3(CC2)CN(C(=O)[C@H]2C[C@@](C)(O)C2)C3)ccc1C [Example 360, (7-(3-Ethoxy-4-methylphenyl)-2-azaspiro[3.5]nonan-2-yl)((1s,3s)-3-hydroxy-3-methylcyclobutyl)methanone]
30 | 8.21 | COc1nc(OC2CCC3(CC2)CN(C(=O)[C@H]2C[C@@](C)(O)C2)C3)ccc1Cl [Example 461, (7-((5-Chloro-6-methoxypyridin-2-yl)oxy)-2-azaspiro[3.5]nonan-2-yl)((1s,3s)-3-hydroxy-3-methylcyclobutyl)methanone]
31 | 7.43 | Cc1c(Cl)cccc1C1CCC2(C1)CN(C(=O)[C@H]1C[C@@](C)(O)C1)C2 (mixture of isomers) [Example 11, (rac)-(6-(3-Chloro-2-methylphenyl)-2-azaspiro[3.4]octan-2-yl)((1s,3s)-3-hydroxy-3-methylcyclobutyl)methanone]
32 | 8.00 | CC(C)(C)c1ccc(OC2CCC3(CC2)CN(C(=O)[C@H]2C[C@@](C)(O)C2)C3)cc1 [Example 260, (7-(4-(tert-Butyl)phenoxy)-2-azaspiro[3.5]nonan-2-yl)((1s,3s)-3-hydroxy-3-methylcyclobutyl)methanone]
33 | 8.62 | Cc1ccc(C2CCC3(CC2)CN(C(=O)[C@H]2C[C@@](C)(O)C2)C3)nc1C(C)C [Example 373, ((1s,3s)-3-Hydroxy-3-methylcyclobutyl)(7-(6-isopropyl-5-methylpyridin-2-yl)-2-azaspiro[3.5]nonan-2-yl)methanone]
